Patent US20090137572A1, “2-substituted-4-heteroaryl-pyrimidines useful for the treatment of proliferative disorders” (priority 2004, published 2009)

Legend:
Aurora A kinase = molecular target: T1, Aurora A kinase (Homo sapiens, UniProt O14965); assay: Aurora-A (human) kinase assay (Kemptide substrate); format: biochemical; conditions: pIC50 is -log(IC50, M), 15 μM ATP; for IC50: read-out: Kinase Inhibition pIC50 Aurora A kinase (converted)
T1 construct: purchased
T1 sequence (O14965 1-403): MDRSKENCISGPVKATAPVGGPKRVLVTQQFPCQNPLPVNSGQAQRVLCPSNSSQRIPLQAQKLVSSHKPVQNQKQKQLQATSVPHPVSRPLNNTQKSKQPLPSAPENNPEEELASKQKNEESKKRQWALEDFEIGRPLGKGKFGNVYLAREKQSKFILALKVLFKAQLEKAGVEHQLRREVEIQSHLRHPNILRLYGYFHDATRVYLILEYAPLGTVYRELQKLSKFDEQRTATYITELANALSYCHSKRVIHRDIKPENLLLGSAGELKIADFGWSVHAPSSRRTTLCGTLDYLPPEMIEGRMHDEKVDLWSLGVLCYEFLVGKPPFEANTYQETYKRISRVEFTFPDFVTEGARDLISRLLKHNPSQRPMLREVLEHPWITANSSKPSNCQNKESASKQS
Protocol: Aurora-A (human) kinase assay. This was achieved by measurement of incorporation of radioactive phosphate from ATP into Kemptide substrate (LRRASLG), upon phosphorylation by commercially obtained aurora-A kinase. Assays were performed using 96-well plates and appropriate assay buffers (8 mM MOPS, 0.2 mM EDTA, pH 7.0), into which were added 5-10 ng of active enzyme with 200 μM substrate (Kemptide). The reactions were initiated by addition of Mg/ATP mix (10 mM MgAcetate+15 μM ATP with 30-50 kBq per well of [γ-^33P]-ATP) and mixtures incubated for 40 min at room temperature. Reactions were stopped by addition of 3% phosphoric acid, followed by filtration through p81 filterplates (Whatman Polyfiltronics, Kent, UK). After washing 5 times with 75 mM aq orthophosphoric acid and once in methanol, plates were dried, scintillant added and incorporated radioactivity measured in a scintillation counter (TopCount, Packard Instruments, Pangbourne, Berks, UK). Compounds for kinase assay were made up as 10 mM stocks in DMSO and diluted into 10% DMSO in assay buffer.

CDK2-cycline E = CDK2-cycline E (Homo sapiens, UniProt P24941); assay: Kinase assay (radioactive phosphate incorporation), CDK2-cyclin E; format: biochemical; conditions: read-out: Kinase Inhibition pIC50 CDK2-cycline E (converted)
Protocol: Kinase assays. The compounds of the invention above were investigated for their ability to inhibit the enzymatic activity of various protein kinases (Table 2). This was achieved by measurement of incorporation of radioactive phosphate from ATP into appropriate polypeptide substrates. Recombinant protein kinases and kinase complexes were produced or obtained commercially. Assays were performed using 96-well plates and appropriate assay buffers (typically 25 mM β-glycerophosphate, 20 mM MOPS, 5 mM EGTA, 1 mM DTT, 1 mM […], pH 7.4), into which were added 2-4 μg of active enzyme with appropriate substrates. The reactions were initiated by addition of Mg/ATP mix (15 mM MgCl2+100 μM ATP with 30-50 kBq per well of [γ-^32P]-ATP) and mixtures incubated as required at 30° C. Reactions were stopped on ice, followed by filtration through p81 filterplates or GF/C filterplates (Whatman Polyfiltronics, Kent, UK). After washing 3 times with 75 mM aq orthophosphoric acid, plates were dried, scintillant added and incorporated radioactivity measured in a scintillation counter (TopCount, Packard Instruments, Pangbourne, Berks, UK). Compounds for kinase assay were made up as 10 mM stocks in DMSO and diluted into 10% DMSO in assay buffer.

IC50 (Aurora A kinase) [nM]	Kinase Inhibition pIC50 Aurora A kinase (Aurora A kinase)	IC50 (CDK2-cycline E) [nM]	SMILES
1580			Cc1nc(-c2cccnc2)sc1-c1ccnc(Nc2ccc3c(c2)OCCO3)n1 [Compound 180, (2,3-Dihydro-benzo[1,4]dioxin-6-yl)-[4-(4-methyl-2-pyridin-3-yl-thiazol-5-yl)-pyrimidin-2-yl]-amine]
3980			CNc1nc(C)c(-c2ccnc(Nc3ccc(N4CCOCC4)cc3C)n2)s1 [Compound 145, [4-(4-Methyl-2-methylamino-thiazol-5-yl)-pyrimidin-2-yl]-(2-methyl-4-morpholin-4-yl-phenyl)-amine]
	6.1		Cc1nc(N(C)c2cccnc2)sc1-c1ccnc(Nc2ccc(N3CCOCC3)cc2)n1 [Compound 153, {4-[4-Methyl-2-(methyl-pyridin-3-yl-amino)-thiazol-5-yl]-pyrimidin-2-yl}-(4-morpholin-4-yl-phenyl)-amine]
251			Cc1cc(Nc2nccc(-c3sc(CO)nc3C)n2)ccc1N1CCCCC1 [Compound 209, {4-Methyl-5-[2-(3-methyl-4-piperidin-1-yl-phenylamino)-pyrimidin-4-yl]-thiazol-2-yl}-methanol]
398		251	CNc1ccc(Nc2nccc(-c3sc(C)nc3C)n2)cc1C(F)(F)F [Compound 149, N^4-[4-(2,4-Dimethyl-thiazol-5-yl)-pyrimidin-2-yl]-N^1-methyl-2-trifluoromethyl-benzene-1,4-diamine]
39.8		2000	COc1cc(Nc2nccc(-c3sc(CO)nc3C)n2)ccc1N1CCOCC1 [Compound 200, {5-[2-(3-Methoxy-4-morpholin-4-yl-phenylamino)-pyrimidin-4-yl]-4-methyl-thiazol-2-yl}-methanol]
1260			Cc1nc(NCCc2ccccc2)sc1-c1ccnc(Nc2ccc3c(c2)OCCO3)n1 [Compound 183, (2,3-Dihydro-benzo[1,4]dioxin-6-yl)-[4-(4-methyl-2-phenethylamino-thiazol-5-yl)-pyrimidin-2-yl]-amine]
200		631	CCNc1nc(C)c(-c2ccnc(Nc3ccc(N4CCN(C)CC4)cc3)n2)s1 [Compound 196, [4-(2-Ethylamino-4-methyl-thiazol-5-yl)-pyrimidin-2-yl]-[4-(4-methyl-piperazin-1-yl)-phenyl]-amine]
501			COc1ccc(Nc2nccc(-c3sc(-c4cccnc4)nc3C)n2)cc1C [Compound 186, (4-Methoxy-3-methyl-phenyl)-[4-(4-methyl-2-pyridin-3-yl-thiazol-5-yl)-pyrimidin-2-yl]-amine]
501			Cc1nc(-c2ccc(N3CCOCC3)cc2)sc1-c1ccnc(Nc2ccc(N3CCOCC3)cc2)n1 [Compound 147, {4-[4-Methyl-2-(4-morpholin-4-yl-phenyl)-thiazol-5-yl]-pyrimidin-2-yl}-(4-morpholin-4-yl-phenyl)-amine]
63.1		126	CNc1nc(C)c(-c2ccnc(Nc3ccc(OC)c(C)c3)n2)s1 [Compound 184, (4-Methoxy-3-methyl-phenyl)-[4-(4-methyl-2-methylamino-thiazol-5-yl)-pyrimidin-2-yl]-amine]
251			Cc1nc(C)c(-c2ccnc(Nc3ccc(C)c(N4CCOCC4)c3)n2)s1 [Compound 214, [4-(2,4-Dimethyl-thiazol-5-yl)-pyrimidin-2-yl]-(4-methyl-3-morpholin-4-yl-phenyl)-amine]
79.4		794	CCNc1nc(C)c(-c2ccnc(Nc3ccc(N4CCCCC4)cc3)n2)s1 [Compound 194, [4-(2-Ethylamino-4-methyl-thiazol-5-yl)-pyrimidin-2-yl]-(4-piperidin-1-yl-phenyl)-amine]
1580			Cc1ccc(-c2nc(C)c(-c3ccnc(Nc4ccc(N5CCOCC5)cc4)n3)s2)c(C)c1 [Compound 140, {4-[2-(2,4-Dimethyl-phenyl)-4-methyl-thiazol-5-yl]-pyrimidin-2-yl}-(4-morpholin-4-yl-phenyl)-amine]
100		794	CCNc1nc(C)c(-c2ccnc(Nc3ccc(OC)c(C)c3)n2)s1 [Compound 187, [4-(2-Ethylamino-4-methyl-thiazol-5-yl)-pyrimidin-2-yl]-(4-methoxy-3-methyl-phenyl)-amine]
200		501	CCNc1nc(C)c(-c2ccnc(Nc3ccc4c(c3)OCCO4)n2)s1 [Compound 181, (2,3-Dihydro-benzo[1,4]dioxin-6-yl)-[4-(2-ethylamino-4-methyl-thiazol-5-yl)-pyrimidin-2-yl]-amine]
2510			CCNc1nc(C)c(-c2ccnc(Nc3ccc(N4CCOCC4)cc3C)n2)s1 [Compound 146, [4-(2-Ethylamino-4-methyl-thiazol-5-yl)-pyrimidin-2-yl]-(2-methyl-4-morpholin-4-yl-phenyl)-amine]
251			Cc1nc(C)c(-c2ccnc(Nc3ccc(N4CCOCC4)c(C(N)=O)c3)n2)s1 [Compound 210, 5-[4-(2,4-Dimethyl-thiazol-5-yl)-pyrimidin-2-ylamino]-2-morpholin-4-yl-benzamide]

More lines, now with the values behind:

SMILES	IC50 (Aurora A kinase) [nM]	Kinase Inhibition pIC50 Aurora A kinase (Aurora A kinase)	IC50 (CDK2-cycline E) [nM]
COc1ccc(C)c(Nc2nccc(-c3sc(C)nc3C)n2)c1 [Compound 113, [4-(2,4-Dimethyl-thiazol-5-yl)-pyrimidin-2-yl]-(5-methoxy-2-methyl-phenyl)-amine]	5010		
Cc1nc(N(C)C)sc1-c1ccnc(N)n1 [Compound 88, 4-(2-Dimethylamino-4-methyl-thiazol-5-yl)-pyrimidin-2-ylamine]	1580		
CNc1nc(C)c(-c2ccnc(N)n2)s1 [Compound 85, 4-(4-Methyl-2-methylamino-thiazol-5-yl)-pyrimidin-2-ylamine]	398		
CCN(CC)S(=O)(=O)c1ccc(Nc2nccc(-c3sc(NC)nc3C)n2)cc1 [Compound 52, N,N-Diethyl-4-[4-(4-methyl-2-methylamino-thiazol-5-yl)-pyrimidin-2-ylamino]-benzenesulfonamide]	100		1000
COc1ccc(Nc2nccc(-c3sc(C)nc3C)n2)c(C)c1 [Compound 112, [4-(2,4-Dimethyl-thiazol-5-yl)-pyrimidin-2-yl]-(4-methoxy-2-methyl-phenyl)-amine]	2510		
Cc1nc(CO)sc1-c1ccnc(Nc2ccc(N(C)C)cc2)n1 [Compound 132, {5-[2-(4-Dimethylamino-phenylamino)-pyrimidin-4-yl]-4-methyl-thiazol-2-yl}-methanol]	100		631
CCc1cc(-c2nc(C)c(-c3ccnc(Nc4cccc(CNC(C)=O)c4)n3)s2)ccn1 [Compound 105, N-(3-{4-[2-(2-Ethyl-pyridin-4-yl)-4-methyl-thiazol-5-yl]-pyrimidin-2-ylamino}-benzyl)-acetamide]	316		
CCNc1nc(C)c(-c2ccnc(Nc3ccc(OC)cc3C)n2)s1 [Compound 111, [4-(2-Ethylamino-4-methyl-thiazol-5-yl)-pyrimidin-2-yl]-(4-methoxy-2-methyl-phenyl)-amine]	3160		
CCNc1nc(C)c(-c2ccnc(N)n2)s1 [Compound 86, 4-(2-Ethylamino-4-methyl-thiazol-5-yl)-pyrimidin-2-ylamine]	1000		
COCCNS(=O)(=O)c1ccc(Nc2nccc(-c3sc(C)nc3C)n2)cc1 [Compound 43, 4-[4-(2,4-Dimethyl-thiazol-5-yl)-pyrimidin-2-ylamino]-N-(2-methoxy-ethyl)-benzenesulfonamide]	126		10
CCN(C(C)=O)c1nc(C)c(-c2ccnc(N)n2)s1 [Compound 87, N-[5-(2-Amino-pyrimidin-4-yl)-4-methyl-thiazol-2-yl]-N-ethyl-acetamide]	158		
Cc1nc(C)c(-c2ccnc(Nc3ccc(N4CCOCC4)cc3C)n2)s1 [Compound 139, [4-(2,4-Dimethyl-thiazol-5-yl)-pyrimidin-2-yl]-(2-methyl-4-morpholin-4-yl-phenyl)-amine]	1580		
